Values after ≈ are worked out from the molar mass of the structure shown. Values joined by “and” are separate entries in the source; they are usually repeats but may differ in a detail not shown here. Equal values may be shown once.
How the values were obtained:
S. aureus ATCC 29213 [1] = assay: MIC assay (CLSI M07-A8) in Mueller Hinton II Broth; format: cell-based, Staphylococcus aureus; details: S. aureus ATCC 29213, quality control agent
Description: The MIC assay method followed the procedure described by the Clinical and Laboratory Standards Institute, or CLSI (Clinical and Laboratory Standards Institute). […] The medium employed for the MIC assay was Mueller Hinton II Broth (MHB II—Becton Dickinson, Sparks, Md.; Cat No 212322; Lot 9044411). S. aureus ATCC 29213 served as the quality control strain, and linezolid was utilized as the quality control antibiotic to validate the assay.

S. aureus ATCC 29213 [2] = assay: ATP release assay (CellTiter-Glo); format: cell-based, Staphylococcus aureus; details: 8-fold the MIC (256 μg/ml), 30 min exposure
Description: The CellTiter-Glo Luminescent Cell Viability Assay (Promega) was utilized to measure the leakage of ATP from bacteria. […] The negative control received 2% DMSO, which represented the final DMSO concentration in each assay. […] Results were expressed as ATP concentration released to the medium (μM).

[3] = tested on: Staphylococcus spp. Strain MK1; assay: Checkerboard synergy study, Staphylococcus spp. MK1; format: cell-based; parameters: key to FIC1 (last-but-one column; FIC index of antibiotic + NCL812): FICI: <0.5 synergy, 0.5-4 no effect, >4 antagonism; details: Staphylococcus spp. Strain MK1
Description: (§1) Firstly, the MIC of each antibiotic alone was determined in accordance to CLSI standard guidelines.
(§2) According to the checkerboard guidelines, Synergy (S) was defined as an FICI<0.5. No effect (NE) was defined as 0.5<FICI<4. Antagonism (A) was defined as a 4<FICI.

S. aureus strain T3-29 = assay: Checkerboard synergy study, S. aureus T3-29; format: cell-based, Staphylococcus aureus
Description: as §1, §2

S. pneumoniae [4] = assay: MBC, pneumococcal isolates; format: cell-based, Streptococcus pneumoniae; details: isolate WCH16
Description: (§3) [Micro-broth dilutions and 96-well trays are prepared by the following method: 90 μL of 4% LHB: CAMHB is aliquotted into all wells using a multichannel pipette. 90 μl of working antimicrobial stocks were no serial diluted down the tray by a 1:2 dilution. Negative broth controls and dilution control were taken into account when planning the set up of a 96-well tray.] 10 μL of bacterial suspension was then added to the appropriate wells in the 96 well tray. Appropriate positive (no antimicrobial), negative (no antimicrobial or bacteria) and negative dilution (a serial dilution control of antimicrobial and broth) controls were included in each assay. […] The MBC was determined by a 99.95% inhibition of S. pneumoniae, taking into account the dilution factor. MICs and MBCs were determined in quadruplicate and the mode was taken as the representative value. The MIC50, MIC90 and MIC range and MBC50, MBC90 and MBC range were determined according to CLSI standards. The MIC50 and MIC90, or MBC50 and MBC90, are defined by the lowest concentrations which, when all the MICs and MBCs of the isolates are arranged from lowest to highest, inhibited the 50th and 90th percentile of the total amount of isolates, respectively.

[5] = tested on: methicillin-resistant Staphylococcus aureus (MRSA); assay: Minimum inhibitory concentration assay (CLSI), MRSA isolates; format: cell-based; details: ATCC control strains
Description: Minimum inhibitory concentration tests were performed according to CLSI Standards (CLSI 2008). […] The solutions were then serially diluted across the row, leaving 2 columns for positive and negative controls. A bacterial suspension was prepared by adding fresh colonies obtained from an overnight culture on Sheep Blood Agar (SBA) to a 9.1 g/L saline solution. This suspension was adjusted to a concentration of between 4×10^8 and 5×10^8 CFU/mL. Concentration of the suspension was determined by measuring optical density (OD) using a spectrophotometer at a wavelength of 600 nm where the correct concentration was determined to have an optical density of between 1.00 and 1.20. One milliliter of this suspension was added to 9 mL of saline before being added to all wells, excluding the negative control wells, in 10 μL volumes giving a final concentration of between 4×10^5 and 5×10^5 CFU/mL in each well. The tests were then incubated for 24 hours at 37° C. and then assessed both visually and using OD readings from a microplate reader at a wavelength of 600 nm. These tests were performed in duplicate but repeated if discrepancies were observed.
The minimum inhibitory concentration (MIC) was determined to be the lowest concentration of antibiotic that prevented growth of bacteria both visually and using OD readings.

S. pneumoniae [6] = assay: MIC by micro-broth dilution, pneumococcal isolates; format: cell-based, Streptococcus pneumoniae
Description: as §3

[7] = tested on: methicillin-resistant and methicillin-susceptible Staphylococcus aureus; assay: MIC by broth microdilution (CLSI), S. aureus clinical isolates; format: cell-based; details: positive control
Description: Microtiter plates containing two-fold dilutions of each antimicrobial agent were inoculated with ˜10^5-CFU/ml of each isolate in a 100-μl final volume. Plates were incubated for 24-h at 37° C. Turbidity (absorbance at OD600) was measured using a Bio-Rad Benchmark Plus microplate spectrophotometer in Microplate Manager® version 5.2.1 (Bio-Rad). Minimum inhibitory concentration (MIC) endpoints were defined as the lowest antimicrobial concentration assessed by the spectrophotometer that inhibited bacterial growth. ATCC 49775 was included in the isolate collection as a control organism using breakpoints defined by the CLSI. The MIC50, MIC90 (concentrations that inhibited growth of the lower 50% and 90% of total organisms, respectively), and MIC range (minimum and maximum) were calculated to profile the antimicrobial susceptibility of the isolate collection.

CC(=O)NC[C@H]1CN(c2ccc(N3CCOCC3)c(F)c2)C(=O)O1 [Linezolid, linezolid]
MIC against CLSI quality control range (S. aureus ATCC 29213 [1]): within the CLSI-established quality control range

polymyxin B [reference compound]
maximal release of ATP (S. aureus ATCC 29213 [2]): approximately 0.34 μM

CC1(C)S[C@@H]2[C@H](NC(=O)Cc3ccccc3)C(=O)N2[C@H]1C(=O)O [Penicillin G, penicillin G]
Antibiotic MIC Alone [3]: 0.125 µg/mL and 0.25 µg/mL | Antibiotic MIC With NCL812 [3]: 0.062 µg/mL and 0.031 µg/mL | FIC1 (last-but-one column; FIC index of antibiotic + NCL812) [3]: 1 and 0.625 | Result (interaction of antibiotic with NCL812) [3]: NE (No effect (NE) was defined as 0.5<FICI<4)

O=C(O)c1cn(C2CC2)c2cc(N3CCNCC3)c(F)cc2c1=O [Ciprofloxacin, ciprofloxacin]
Antibiotic MIC Alone [3]: 0.125 µg/mL and 0.25 µg/mL | FIC1 (last-but-one column; FIC index of antibiotic + NCL812) [3]: 0.75 and 0.525 and 0.625 and 0.562 | Result (interaction of antibiotic with NCL812) [3]: NE (No effect (NE) was defined as 0.5<FICI<4)

O=C(N[C@H](CO)[C@H](O)c1ccc([N+](=O)[O-])cc1)C(Cl)Cl [Chloramphenicol, chloramphenicol]
FIC1 (last-but-one column; FIC index of antibiotic + NCL812) (S. aureus strain T3-29): 0.75 | Result (interaction of antibiotic with NCL812) (S. aureus strain T3-29): NE (No effect (NE) was defined as 0.5<FICI<4)

Cc1cc(NS(=O)(=O)c2ccc(N)cc2)no1 [Sulfamethoxazole, sulfamethoxazole]
Antibiotic MIC Alone [3]: 8 µg/mL | Antibiotic MIC With NCL812 [3]: 4 µg/mL | FIC1 (last-but-one column; FIC index of antibiotic + NCL812) [3]: 0.75 and 1 | FIC1 = MIC of antibiotic in combination with NCL812/MIC of antibiotic alone [3]: 0.5 | Result (interaction of antibiotic with NCL812) [3]: NE (No effect (NE) was defined as 0.5<FICI<4)

CC1(C)S[C@@H]2[C@H](NC(=O)[C@H](N)c3ccccc3)C(=O)N2[C@H]1C(=O)O [Ampicillin]
MBC (S. pneumoniae [4]): Autolysis | MIC values against CLSI recommendations [5]: within the normal range expected | MIC Range (S. pneumoniae [6]; 20 S. pneumoniae strains): 0.011 to 0.09 µg/mL | MIC (S. pneumoniae [6]; Streptococcus pneumoniae): 0.023 µg/mL (≈ 0.0658 µM) | MIC50 (S. pneumoniae [6]; Streptococcus pneumoniae): 0.023 µg/mL (≈ 0.0658 µM) | MIC90 (S. pneumoniae [6]; Streptococcus pneumoniae): 0.023 µg/mL (≈ 0.0658 µM) | MIC (S. pneumoniae [6]; isolate EF3030): 0.023 | MIC (S. pneumoniae [6]; isolate WCH184): 0.045 | Result (interaction of antibiotic with NCL812) (S. aureus strain T3-29): NE (No effect (NE) was defined as 0.5<FICI<4) | MIC values against CLSI guidelines [7]: within the normal range expected

gentamicin
Antibiotic MIC Alone [3]: 1 µg/mL and 0.5 µg/mL | Result (interaction of antibiotic with NCL812) [3]: NE (No effect (NE) was defined as 0.5<FICI<4)

CC[C@H]1OC(=O)[C@H](C)[C@@H](O[C@H]2C[C@@](C)(OC)[C@@H](O)[C@H](C)O2)[C@H](C)[C@@H](O[C@@H]2O[C@H](C)C[C@H](N(C)C)[C@H]2O)[C@](C)(O)C[C@@H](C)C(=O)[C@H](C)[C@@H](O)[C@]1(C)O [Erythromycin, erythromycin]
MIC (S. pneumoniae [6]; Streptococcus pneumoniae): 0.00275 µg/mL (≈ 0.00375 µM) | Result (interaction of antibiotic with NCL812) (S. aureus strain T3-29): NE (No effect (NE) was defined as 0.5<FICI<4)

CN(C)[C@@H]1C(O)=C(C(N)=O)C(=O)[C@@]2(O)C(O)=C3C(=O)c4c(O)cccc4[C@@](C)(O)[C@H]3C[C@@H]12 [Tetracycline, tetracycline]
FIC1 (last-but-one column; FIC index of antibiotic + NCL812) (S. aureus strain T3-29): 0.75 and 0.62 | Result (interaction of antibiotic with NCL812) (S. aureus strain T3-29): NE (No effect (NE) was defined as 0.5<FICI<4)
